Laboratory results: PubChem BioAssay AID1963860 (Molecular Pharmacology Branch, DTP, NCI, 2024)

System: CN0375-F725-PDC KRAS spheroid viability
Assay: Anticancer human tumor CN0375-F725-PDC patient-derived colon carcinoma cell line growth inhibition [KRAS2]
Settings: spheroids with HUVEC and MSC; for IC50: curve of first compound; for viability, T/C: stronger effect = lower value
Method in brief: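 Combination screen of spheroid viability in tumor-cell co-cultures with endothelial (HUVEC) and mesenchymal stem cell stroma. Each agent was tested in half-log dilutions, topping at clinical Cmax or at 10 microM without a known Cmax.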

[1] = second compound 0.1 µM, first compound 0.0316 µM
[2] = second compound 0.1 µM, first compound 0.1 µM
[3] = second compound 0.1 µM, first compound 0.316 µM
[4] = second compound 0.1 µM, first compound 1 µM
[5] = second compound 0.1 µM, first compound 3.16 µM
[6] = second compound 0.316 µM, first compound 0.0316 µM
[7] = second compound 0.316 µM, first compound 0.1 µM
[8] = second compound 0.316 µM, first compound 0.316 µM
[9] = second compound 0.316 µM, first compound 1 µM
[10] = second compound 0.316 µM, first compound 3.16 µM
[11] = second compound 1 µM, first compound 0.0316 µM
[12] = second compound 1 µM, first compound 0.1 µM
[13] = second compound 1 µM, first compound 0.316 µM
[14] = second compound 1 µM, first compound 1 µM
[15] = second compound 1 µM, first compound 3.16 µM
[16] = second compound 3.16 µM, first compound 0.0316 µM
[17] = second compound 3.16 µM, first compound 0.1 µM
[18] = second compound 3.16 µM, first compound 0.316 µM
[19] = second compound 3.16 µM, first compound 1 µM
[20] = second compound 3.16 µM, first compound 3.16 µM
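Also: spheroids exposed to agents for 7 days.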

SMILES | IC50 (second compound 0.1 µM) | IC50 (second compound 0.316 µM) | IC50 (second compound 1 µM) | IC50 (second compound 3.16 µM) | viability, T/C [1] | viability, T/C [2] | viability, T/C [3] | viability, T/C [4] | viability, T/C [5] | viability, T/C [6] | viability, T/C [7] | viability, T/C [8] | viability, T/C [9] | viability, T/C [10] | viability, T/C [11] | viability, T/C [12] | viability, T/C [13] | viability, T/C [14] | viability, T/C [15] | viability, T/C [16] | also measured
CC(=O)OC12COC1CC(O)C1(C)C(=O)C(O)C3=C(C)C(OC(=O)C(O)C(NC(=O)OC(C)(C)C)c4ccccc4)CC(O)(C(OC(=O)c4ccccc4)C21)C3(C)C (stereo not given) + CC1OCC2(CCN(c3cnc(Sc4ccnc(N)c4Cl)c(N)n3)CC2)C1N | > 3.16 µM | > 3.16 µM | > 3.16 µM | > 3.16 µM | 93.2% | 83.8% | 79.1% | 79.6% | 71.5% | 88.4% | 79.4% | 74.7% | 71.8% | 71.8% | 102% | 87.5% | 83.8% | 80.7% | 76.7% | 74.8% | IC50 (second compound 10 µM): > 3.16 µM; viability, T/C (second compound 0.1 µM, first compound 0.01 µM): 93.5%; viability, T/C (second compound 0.316 µM, first compound 0.01 µM): 91.5%; viability, T/C (second compound 1 µM, first compound 0.01 µM): 95.6%; viability, T/C (second compound 3.16 µM, first compound 0.01 µM): 77.6%; viability, T/C [17]: 68%; viability, T/C [18]: 64%; viability, T/C [19]: 64.5%; viability, T/C [20]: 58.6%; viability, T/C (second compound 10 µM, first compound 0.01 µM): 73.9%; viability, T/C (second compound 10 µM, first compound 0.0316 µM): 70.1%; viability, T/C (second compound 10 µM, first compound 0.1 µM): 67.2%; viability, T/C (second compound 10 µM, first compound 0.316 µM): 59.8%; viability, T/C (second compound 10 µM, first compound 1 µM): 57.2%; viability, T/C (second compound 10 µM, first compound 3.16 µM): 53.2%
O=C(c1cc(Cc2n[nH]c(=O)c3ccccc23)ccc1F)N1CCN(C(=O)C2CC2)CC1 + C=CC(=O)N1CCN(c2nc(OCC3CCCN3C)nc3c2CCN(c2cccc4cccc(C)c24)C3)CC1CC#N | > 10 µM | > 10 µM | > 10 µM | < 0.0316 µM | 108% | 107% | 101% | 98.8% | 104% | 101% | 107% | 97.5% | 99.6% | 101% | 100% | 102% | 97.9% | 90.6% | 103% | 34.1% | IC50 (second compound 0.0316 µM): > 10 µM; viability, T/C (second compound 0.0316 µM, first compound 0.0316 µM): 104%; viability, T/C (second compound 0.0316 µM, first compound 0.1 µM): 104%; viability, T/C (second compound 0.0316 µM, first compound 0.316 µM): 99%; viability, T/C (second compound 0.0316 µM, first compound 1 µM): 102%; viability, T/C (second compound 0.0316 µM, first compound 3.16 µM): 99.4%; viability, T/C (second compound 0.0316 µM, first compound 10 µM): 94.7%; viability, T/C (second compound 0.1 µM, first compound 10 µM): 99.3%; viability, T/C (second compound 0.316 µM, first compound 10 µM): 92.5%; viability, T/C (second compound 1 µM, first compound 10 µM): 89%; viability, T/C [17]: 29%; viability, T/C [18]: 21.5%; viability, T/C [19]: 22.7%; viability, T/C [20]: 28.9%; viability, T/C (second compound 3.16 µM, first compound 10 µM): 8.54%
